In patent publication US9585957B2, “Adenosine receptor agonists and antagonists to modulate T cell responses” (THE JOHNS HOPKINS UNIVERSITY, priority 2007, dated 2017):

Legend:
B16 melanoma cells = assay: B16 melanoma lung metastases in mice treated with TA99 antibody, with or without ZM; assay type: in vivo; settings: Wt mice, 200 ug TA99 on day +1 plus ZM 10 mg/kg IP twice a day from Day 0; Day +15 (FIG. 17)
Experimental: Wt and A2a receptor null mice received 1 million B16 melanoma cells IV on day 0. Control mice received not treatment. Treated mice received 200 ug IP of TA99 antibody on days 0, 2, 5. The mice were sacrificed on Day 15 and lung mets were counted.
Wt mice received 1 million B16 melanoma cells on Day 0. On day +1 they received either no treatment or 200 ug of TA99 antibody. Zm treated mice received 10 mg/kg IP of ZM twice a day beginning on Day 0 and continuing for the remainder of the experiment. The mice were evaluated on Day +15.
Wt and A2a receptor null mice received 1 million B16 melanoma cells IV on day 0. Control mice received not treatment. Treated mice received 200 ug IP of TA99 antibody on days 0, 2, 5. The mice were sacrificed on Day 15 and lung metastases were counted. […] Eliminating A2a receptor activity in the mice reduced melanoma metastases by approximately 50% and treatment with the antibody reduced metastases by approximately 60%. However, when knock out mice are treated with the antibody, the level of tumor metastases dropped by approximately 80% when compared to untreated wild type, and by 50% or more when compared to either the knock out or antibody treated wild type mice.

LAG-3 = LAG-3 upregulation in A.E7 T cells (ionomycin or PMA stimulation; CsA); assay type: cell-based; settings: ionomycin alone (FIG. 3c)
From the text: FIGS. 3(a)-(f) are graphs showing that A2a receptor signaling promotes the upregulation of LAG-3^+ in vitro. […] Data are representative of 3 independent experiments. 3(c) is a graph of LAG3 upregulation in A.E7 T cells following stimulation with ionomycin or PMA. 3(d) is an image of representative Western blots for phosphor-ERK and total ERK (top and bottom respectively). […] Data are representative of 3 independent experiments. 3(e) is an image of representative Western blots for junB, and actin (top and bottom, respectively). […] Data are representative of 3 independent experiments. 3(f) is an image of representative EMSA for AP-1. […] Data are representative of 3 independent experiments.

Compound | reduction of average lung metastases, antibody in combination with ZM (B16 melanoma cells) | LAG-3 upregulation (LAG-3)
Nc1nc(NCCc2ccc(O)cc2)nc2nc(-c3ccco3)nn12 [ZM, 4-(2-[7-amino-2-(2-furyl)[1,2,4]triazolo[2,3-a][1,3,5]triazin-5-ylamino]ethyl)phenol] | approximately 80% | –
C[C@H](CCC(=O)O)C[C@H](C)C[C@H](C)C(=O)/C=C(\O)[C@H](C)C[C@H](C)C/C=C/[C@@H](C)[C@@H](O)[C@@H](C)[C@@H](O)C[C@@H]1CC[C@@](C)([C@H]2CC[C@@](C)([C@@H](C)O)O2)O1 [ionomycin] | – | markedly upregulated
